The nature of this series: Solid-state characterisation of polymorphic Form 1 (hygroscopicity). In kind it is physicochemical. To be noted: crystalline polymorphic Form 1 of the compound of formula (I).

With `OC[C@H]1O[C@H](Sc2cncc(Br)c2)[C@H](O)[C@@H](n2cc(-c3cc(F)c(F)c(F)c3)nn2)[C@H]1O` [Form 1, 5-Bromopyridin-3-yl 3-deoxy-3-[4-(3,4,5-trifluorophenyl)-1H-1,2,3-triazol-1-yl]-1-thio-α-D-galactopyranoside], the hygroscopicity entry was “not hygroscopic”.

The values above are taken from patent US20230063538A1, “LARGE SCALE PROCESS” (GALECTO BIOTECH AB, priority 2019, published 2023).
